These results are taken from ChEMBL document CHEMBL1121386, “Synthesis and analgesic activity of some 14 beta-substituted analogues of morphine” (1980).

Each structure is given as a SMILES string.

For the experiment, the species on record is Cavia porcellus. The experiment is described as follows: Tested for analgesic activity in the guinea pig ileum preparation relative to normorphine (1). The format is functional.
On to `CN1CCC23c4c5ccc(O)c4O[C@H]2C(=O)C=C[C@@]3(Cl)C1C5` (stereo partly specified), for which the Relative activity is listed as 0.5.

Consider `CN1CCC23c4c5ccc(O)c4O[C@H]2C(=O)C=C[C@@]3([N+](=O)[O-])C1C5` (stereo partly specified), for which the Relative activity is 0.006.

In turn, `CN1CCC23c4c5ccc(O)c4O[C@H]2C(=O)C=C[C@@]3(Br)C1C5` (stereo partly specified) gave a Relative activity of 0.4.

`CN1CCC23c4c5ccc(O)c4O[C@H]2[C@@H](O)C=C[C@@]3(O)C1C5` (stereo partly specified) showed a Relative activity of 0.8.

In the case of `CC(=O)N[C@@]12C=C[C@H](OC(C)=O)[C@@H]3Oc4c(O)ccc5c4C31CCN(C)C2C5` (stereo partly specified), the Relative activity came out at 0.6.

`CN1CCC23c4c5ccc(O)c4O[C@H]2[C@@H](O)C=C[C@@]3(S)C1C5` (stereo partly specified) registered a Relative activity of 0.4.
